How the values were obtained:
human ANO1(abc) = molecular target: T1, human ANO1(abc) (Homo sapiens, UniProt Q5XXA6, DEL476-501); assay: YFP fluorescence plate reader assay of iodide influx in ANO1 expressing FRT cells; type: cell-based; conditions: read-out: IC50 of ANO1 inhibition
T1 construct: expressed in transfected cells
T1 sequence (Q5XXA6 with tags, fused parts or gaps isoform Q5XXA6-5 DEL539-564): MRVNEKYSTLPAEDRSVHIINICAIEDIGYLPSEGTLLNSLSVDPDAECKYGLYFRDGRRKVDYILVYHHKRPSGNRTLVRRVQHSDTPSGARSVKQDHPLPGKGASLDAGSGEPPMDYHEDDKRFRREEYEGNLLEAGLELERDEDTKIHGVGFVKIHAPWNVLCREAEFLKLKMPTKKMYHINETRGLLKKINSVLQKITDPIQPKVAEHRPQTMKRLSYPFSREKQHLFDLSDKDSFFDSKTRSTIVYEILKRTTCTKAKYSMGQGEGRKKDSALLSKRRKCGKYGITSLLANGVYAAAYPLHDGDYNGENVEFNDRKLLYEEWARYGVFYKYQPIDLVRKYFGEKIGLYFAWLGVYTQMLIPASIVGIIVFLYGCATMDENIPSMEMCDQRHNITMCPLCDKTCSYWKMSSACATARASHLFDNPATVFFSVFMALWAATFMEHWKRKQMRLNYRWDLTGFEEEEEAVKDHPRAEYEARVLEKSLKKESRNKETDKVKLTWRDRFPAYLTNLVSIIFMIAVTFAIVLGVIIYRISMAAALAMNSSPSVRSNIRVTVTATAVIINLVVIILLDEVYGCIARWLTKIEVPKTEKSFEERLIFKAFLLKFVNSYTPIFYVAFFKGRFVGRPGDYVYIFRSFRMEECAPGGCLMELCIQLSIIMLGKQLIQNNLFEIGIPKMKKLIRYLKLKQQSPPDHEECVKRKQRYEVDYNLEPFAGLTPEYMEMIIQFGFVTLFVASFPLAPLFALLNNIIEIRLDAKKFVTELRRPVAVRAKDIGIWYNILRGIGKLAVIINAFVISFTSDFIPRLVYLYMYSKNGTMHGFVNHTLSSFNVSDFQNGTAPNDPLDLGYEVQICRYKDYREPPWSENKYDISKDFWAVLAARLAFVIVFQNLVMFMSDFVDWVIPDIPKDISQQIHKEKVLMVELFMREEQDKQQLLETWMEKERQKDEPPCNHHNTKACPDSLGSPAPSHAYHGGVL
Method: Cell based screening was performed as described in previous study. Briefly, ANO1 and YFP expressing FRT cells were plated in 96-well black-walled microplates (Corning Inc., Corning, NY) at a density of 20,000 cells per well, and then cultured for 2 days. Assays were done using FLUOstar Omega microplate reader (BMG Labtech, Ortenberg, Germany) and MARS Data Analysis Software (BMG Labtech). Each well of 96-well plate was washed 3 times in PBS (200 μL/wash), leaving 100 μL PBS. Test compounds (1 μL) were added to each well at 25 μM final concentration. After 10 min, 96-well plates were transferred to a plate reader for fluorescence assay. Each well was assayed individually for TMEM16A-mediated I^- influx by recording fluorescence continuously (400 ms per point) for 1 s (baseline), then 100 μL of 140 mM I^- solution containing 200 μM ATP was added at 1 s and then YFP fluorescence was recorded for 5 s. Initial iodide influx rate was determined from the initial slope of fluorescence decrease, by nonlinear regression, following infusion of iodide with ATP.
ANO1 chloride channel activity was measured using Fischer rat thyroid (FRT) cells stably expressing human ANO1(abc) and the genetically encoded iodide-sensing fluorescent protein, YFP-F46L/H148Q/I152L. This cell model was used because of our prior success in ANO1 chloride channel drug discovery. For the screening to identify ANO1 inhibitors, the FRT cells were pre-incubated with test compounds for 10 minutes prior to addition of an iodide and ATP, an agonist of P2 purinergic receptor which induces an increase in intracellular calcium concentration and activation of ANO1, containing solution.

mouse ANO2 = molecular target: T2, mouse ANO2 (Mus musculus, UniProt Q8CFW1); assay: YFP quenching assay in FRT cells expressing ANO2; type: cell-based; conditions: dose dependent, 100 μM ATP
T2 sequence (Q8CFW1 1-1002): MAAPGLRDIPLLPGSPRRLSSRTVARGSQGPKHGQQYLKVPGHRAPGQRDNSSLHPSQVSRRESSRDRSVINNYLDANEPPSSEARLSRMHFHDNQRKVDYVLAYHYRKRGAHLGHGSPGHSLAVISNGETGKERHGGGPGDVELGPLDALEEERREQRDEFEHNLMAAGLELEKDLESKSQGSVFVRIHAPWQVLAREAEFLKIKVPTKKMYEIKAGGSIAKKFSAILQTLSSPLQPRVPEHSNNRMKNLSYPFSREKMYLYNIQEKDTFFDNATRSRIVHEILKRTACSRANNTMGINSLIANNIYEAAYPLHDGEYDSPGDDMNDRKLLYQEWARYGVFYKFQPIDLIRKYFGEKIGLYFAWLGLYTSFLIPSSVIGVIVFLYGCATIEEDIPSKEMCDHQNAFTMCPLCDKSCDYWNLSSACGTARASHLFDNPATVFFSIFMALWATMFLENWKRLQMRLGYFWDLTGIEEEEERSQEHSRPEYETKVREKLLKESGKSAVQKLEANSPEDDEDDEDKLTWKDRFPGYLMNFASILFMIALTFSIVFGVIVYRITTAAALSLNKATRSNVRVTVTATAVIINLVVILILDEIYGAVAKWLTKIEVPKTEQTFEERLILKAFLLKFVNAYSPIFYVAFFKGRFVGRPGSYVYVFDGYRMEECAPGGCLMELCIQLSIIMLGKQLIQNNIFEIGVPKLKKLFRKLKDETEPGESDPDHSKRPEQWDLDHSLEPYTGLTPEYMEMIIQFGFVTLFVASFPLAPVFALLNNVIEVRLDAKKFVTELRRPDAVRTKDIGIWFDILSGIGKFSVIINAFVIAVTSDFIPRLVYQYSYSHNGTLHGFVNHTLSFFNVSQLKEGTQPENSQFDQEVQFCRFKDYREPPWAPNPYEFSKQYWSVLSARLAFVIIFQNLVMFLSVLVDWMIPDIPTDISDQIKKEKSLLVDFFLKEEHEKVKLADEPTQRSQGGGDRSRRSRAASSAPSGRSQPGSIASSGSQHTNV

ANO2 = molecular target: T3, ANO2 (Mus musculus, UniProt Q8CFW1); assay: Apical membrane current in FRT-ANO2 cells; type: cell-based; conditions: 10 μM pretreatment
T3 sequence (Q8CFW1 1-1002): T2 sequence (Q8CFW1 1-1002)
Method: (§1) Snapwell inserts containing ANO1, ANO2 or CFTR expressing FRT cells, ENaC expressing T-84 cells or the human primary airway epithelial cells were mounted in Ussing chambers (Physiologic Instruments, San Diego, CA). To induce transcriptional ENaC induction, the polarized T84 cells were incubated with 2 mM sodium butyrate for 2 days. To increase the functional expression of ANO1, the human airway epithelial cells were treated with IL-4 (10 ng/mL) for 2 days. For T-84 and the human primary airway epithelial cells, the apical and basolateral bath were filled with HCO3^—buffered solution containing (in mM): 120 NaCl, 5 KCl, 1 MgCl2, 1 CaCl2, 10 D-glucose, 2.5 HEPES, and 25 NaHCO3 (pH 7.4). For FRT cells, the basolateral bath was filled with the HCO3^—buffered solution and the apical bath was filled with a half-Cl^- solution. In the half-Cl^- solution 65 mM NaCl in the HCO3^—buffered solution was replaced by Na-gluconate. […] ATP was applied to the apical bath solution to induce intracellular calcium increase. […] Apical membrane currents were measured with an EVC4000 Multi-Channel V/I Clamp (World Precision Instruments, Sarasota, FL) and PowerLab 4/35 (AD Instruments, Castle Hill, Australia). Data were analyzed using Labchart Pro 7 (AD Instruments). The sampling rate was 4 Hz.
ANO1 belongs to anoctamin gene family which contains ten members presenting eight-pass transmembrane segments with cytosolic N- and C-terminals. ANO2 shares a high level of amino acid homology to ANO1 (~60%) and, ANO1 and ANO2 are confirmed CaCCs. However, the roles of other family members (ANO3-ANO10) remain poorly understood and controversial. […] We investigated the effect of these inhibitors on ANO2-mediated apical membrane current in FRT-ANO2 cells.

VRAC [1] = assay: VRAC activity by YFP quenching in LN215 cells; type: cell-based, human; conditions: 10 μM
Method: LN215 cells, a human glioma cell line, were stably transfected with YFP-F46L/H148Q/I152L, a halide sensor YFP. After the cells were incubated on 96well black plates (Corning Inc., Corning, NY) for 48 hours, each well of the 96-well plate was washed 3 times in PBS (200 μL/wash), and the wells were filled with 50 μl/well isotonic solution (in mM): 140 NaCl, 5 KCl, 20 HEPES (310 mOsm/kg; pH 7.4 with NaOH). In each well, VRAC expressed on the cells were stimulated with addition of 50 μl of hypotonic solutions (in mM): 5 KCl, 20 HEPES, 90 mannitol (120 mOsm/kg). Test compounds (1 μL) were added to each well in a dose dependent manner. After 5 min, 96-well plates were transferred to a plate reader for fluorescence assay. Each well was assayed individually for VRAC-mediated I^- influx by recording fluorescence continuously (400 ms per point) for 7.6 s. YFP fluorescence was recorded 0.4 s for baseline, then 100 μL of 140 mM I^- solution was added at 0.4 s to see the change in fluorescence. Initial iodide influx rate was determined from the initial slope of fluorescence decrease, by nonlinear regression, following infusion of iodide.

ANO1 = molecular target: T4, ANO1 (Homo sapiens, UniProt Q5XXA6, DEL476-501); assay: Apical membrane current in ANO1 expressing FRT cells; type: cell-based; conditions: 100 μM ATP
T4 construct: expressed in transfected cells
T4 sequence (Q5XXA6 with tags, fused parts or gaps isoform Q5XXA6-5 DEL539-564): T1 sequence (Q5XXA6 with tags, fused parts or gaps isoform Q5XXA6-5 DEL539-564)
Method: as §1

VRAC [2] = tested on: VRAC; set-up: method as in PMID 24965069, PMID 25163766, PMID 26438191; conditions: ref [26]–[28]; cited from earlier work
human wild-type CFTR = molecular target: T5, human wild-type CFTR (Homo sapiens, UniProt P13569); assay: Apical membrane current in FRT cells expressing CFTR; type: cell-based; conditions: 10 μM, CFTR activated by 20 μM forskolin
T5 construct: expressed in transfected cells; host or cells: Fischer rat thyroid (FRT) cells
Method: as §1
ANO1 was activated by either 10 μM Eact, an ANO1 activator, or 100 μM ATP.

T5 sequence (P13569 whole entry): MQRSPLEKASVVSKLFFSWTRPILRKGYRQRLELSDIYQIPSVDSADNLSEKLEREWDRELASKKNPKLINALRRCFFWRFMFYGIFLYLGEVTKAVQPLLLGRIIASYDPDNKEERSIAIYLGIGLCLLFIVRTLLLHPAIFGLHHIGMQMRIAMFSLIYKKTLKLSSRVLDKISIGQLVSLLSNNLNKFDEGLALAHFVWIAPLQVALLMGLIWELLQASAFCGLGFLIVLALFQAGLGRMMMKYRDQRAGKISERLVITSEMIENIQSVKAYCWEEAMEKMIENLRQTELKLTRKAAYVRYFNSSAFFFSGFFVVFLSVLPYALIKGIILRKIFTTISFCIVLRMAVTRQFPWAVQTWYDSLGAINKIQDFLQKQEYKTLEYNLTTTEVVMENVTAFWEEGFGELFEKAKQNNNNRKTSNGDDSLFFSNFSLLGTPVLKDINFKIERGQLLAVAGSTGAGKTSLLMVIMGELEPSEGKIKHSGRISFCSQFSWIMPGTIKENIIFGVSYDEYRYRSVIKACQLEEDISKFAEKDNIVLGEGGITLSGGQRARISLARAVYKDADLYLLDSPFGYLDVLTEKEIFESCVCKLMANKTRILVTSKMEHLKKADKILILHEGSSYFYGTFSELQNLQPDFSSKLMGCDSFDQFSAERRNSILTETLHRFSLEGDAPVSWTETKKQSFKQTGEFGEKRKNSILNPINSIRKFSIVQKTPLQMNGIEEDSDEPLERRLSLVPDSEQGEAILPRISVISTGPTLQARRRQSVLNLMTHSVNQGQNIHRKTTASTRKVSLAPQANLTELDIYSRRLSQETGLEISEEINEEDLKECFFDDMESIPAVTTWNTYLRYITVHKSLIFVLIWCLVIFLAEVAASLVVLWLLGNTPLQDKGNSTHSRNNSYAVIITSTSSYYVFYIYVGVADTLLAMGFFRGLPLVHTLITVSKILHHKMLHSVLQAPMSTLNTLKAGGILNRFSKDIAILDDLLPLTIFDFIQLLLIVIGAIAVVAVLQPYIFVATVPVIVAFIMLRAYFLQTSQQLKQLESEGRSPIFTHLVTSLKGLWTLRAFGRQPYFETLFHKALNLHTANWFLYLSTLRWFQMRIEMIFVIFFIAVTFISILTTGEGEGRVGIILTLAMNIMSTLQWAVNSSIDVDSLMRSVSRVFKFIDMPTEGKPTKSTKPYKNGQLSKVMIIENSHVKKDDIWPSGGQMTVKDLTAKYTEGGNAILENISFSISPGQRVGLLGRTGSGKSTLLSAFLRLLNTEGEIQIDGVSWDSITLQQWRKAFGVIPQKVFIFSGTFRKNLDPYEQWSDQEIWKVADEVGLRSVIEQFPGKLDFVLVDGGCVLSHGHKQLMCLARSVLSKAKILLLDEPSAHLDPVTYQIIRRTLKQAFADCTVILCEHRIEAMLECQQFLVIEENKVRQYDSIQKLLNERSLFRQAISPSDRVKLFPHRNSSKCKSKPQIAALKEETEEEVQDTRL

Compound | IC50 (human ANO1(abc)) [nM] | further results
CCOc1ccc(Br)cc1/C=N/NC(=O)COc1ccc(Cl)cc1Cl [#1] | 194 | –
COc1ccc(OC)c(/C=N/NC(=O)COc2ccc(Cl)cc2C)c1 [#2] | 262 | –
Cc1cc(Cl)ccc1OCC(=O)N/N=C/c1ccc(O)cc1 [#3] | 301 | –
COc1ccccc1/C=N/NC(=O)COc1ccc(Br)cc1OC [#4] | 438 | –
COc1ccccc1/C=N/NC(=O)COc1ccc(I)cc1 [#5] | 481 | –
CCc1ccc(Br)cc1/C=N/NC(=O)COc1ccc(Br)cc1 [#6] | 512 | –
Cc1cc(Cl)ccc1OCC(=O)N/N=C/c1ccc(O)cc1O [#7] | 572 | –
CCOc1cc(I)cc(/C=N/NC(=O)COc2cccc(C)c2C)c1O [#8] | 894 | –
Cc1cc(Cl)ccc1OCC(=O)N/N=C/c1ccccc1O [#9] | 1020 | –
COc1cc(Nc2ccc([N+](=O)[O-])cc2C(=O)O)cc2ccccc12 [MONNA, N-((4-methoxy)-2-naphthyl)-5-nitroanthranilic acid] | – | effect on ANO2 activity (mouse ANO2): potently blocked; effect on ATP-induced ANO2 current (ANO2): strongly blocked; inhibition of VRAC activity (VRAC [1]): 87.9 ± 1.7%; inhibition of ATP-induced ANO1 current (ANO1; 10 μM pretreatment): almost complete inhibition; IC50 (ANO1; apical membrane current, 20 min pretreatment, read-out: IC50 of ATP-induced ANO1 activation): 1950 ± 1160 nM
O=C(Nc1cc(C(F)(F)F)cc(C(F)(F)F)c1)Nc1ccc(Br)cc1-c1nnn[nH]1 [NS3728] | – | block of VRAC activity (VRAC [2]): potently blocked
CFTRinh-172 | – | effect on CFTR channel activity (human wild-type CFTR): inhibited
